These are literature values, as cited in patent publication US5681738A, “Use of 10-oxo-trans-8-decenoic acid in mushroom cultivation” (The Penn State Research Foundation, priority 1992, dated 1997).

The test system of this series is seed chamber of runner bean. The conditions noted are these: Zimmerman et al., (1979); cited from earlier work.

Turning to `O=C/C=C/CCCCCCCCC(=O)O` [12-Oxo-trans-10-dodecenoic acid], the “formation of an intumescence on seed chamber (in words)” value is recorded as “found to induce the formation of an intumescence”.
